Measured values reported in ChEMBL document CHEMBL1150182, “Lissoclinolide, the first non-nitrogenous metabolite from a Lissoclinum tunicate” (J Nat Prod, 1990).
The source made the active and inactive calls. The rule behind the calls is not given here.

Tested on: Escherichia coli
Assay: Antibacterial activity against Escherichia coli
Assay type: functional, organism-based

`O=C1O/C(=C\C=C\CO)C=C1/C=C/CO` was tested, and the Activity was “inactive”.
